Residues, ends and D or L forms follow the SMILES beside them.
Assay: Transdermal penetration through ex vivo mouse skin in a single-chamber diffusion cell, content by BCA kit
Type: in vitro ADME, Kunming mice
Details: collagen peptide 5 mg/ml in 0.9% NaCl, diffusion area 2.0 cm^2, 37.5° C.
Experimental: 1. Preparation of Mouse Skin Ex Vivo 10 Kunming mice of 20 to 22 g with half male and half […] were used in the experiment. After the mice were killed, the hairs on the abdomen were removed. Then the skin on the hair-removed area was peeled off, stripped of fat and tendons, and rinsed repeatedly with distilled water. After being washed, the mouse skins were rinsed with normal saline, then treated with 10% glycerol, and stored at −20° C. for use (use up within 7 days).
Single-chamber diffusion cell: The effective diffusion area of the diffusion cell is 2.0 cm^2, the volume of the receiving cell is 14 ml, the length of the custom-made stirrer is 1.4 cm, and the receiving solution is 0.9% NaCl solution.
The stored mouse skin was taken out, thawed, washed with normal saline, and sandwiched between the receiving chamber and the supplying chamber, with the medicated side facing the supplying chamber and the skin side facing the receiving chamber. The temperature of the water bath system was adjusted to 37.5° C., and the stirring speed was adjusted to 100 rpm/min. 0.9% NaCl solution pre-warmed at 37° C. was added to the receiving chamber and the air bubbles were exhausted, in order to reduce the interference, the inner surface of the mouse skin was firstly contacted with the receiving solution without medication and all the receiving solution was replaced. Then the 27 collagen peptides synthesized were prepared into 5 mg/ml solutions using 0.9% NaCl respectively, which were injected into the supplying chamber and firmly adhere to the mouse skin respectively. After 24 h, part of the receiving solution was absorbed with a syringe as the sample solution to determine the transdermal amount of collagen peptide.
The BCA kit method was used to determine the polypeptide content in the sample solution. […]

Row | Structure (SMILES) | 24h penetration amount
1 | CC(C)C[C@H](NC(=O)CNC(=O)[C@@H](NC(=O)[C@@H]1CCCN1C(=O)CNC(=O)[C@@H]1CCCN1C(=O)[C@H](CCC(=O)O)NC(=O)CNC(=O)[C@H](CCCNC(=N)N)NC(=O)[C@H](C)NC(=O)CN)[C@@H](C)O)C(=O)N1CCC[C@H]1C(=O)NCC(=O)N1CCC[C@H]1C(=O)N1CCC[C@H]1C(=O)NCC(=O)N[C@@H](CCC(=O)O)C(=O)N[C@@H](CCCNC(=N)N)C(=O)NCC(=O)NCC(=O)N1CCC[C@H]1C(=O)NCC(=O)N[C@@H](CO)C(=O)N[C@@H](CCCNC(=N)N)C(=O)NCC(=O)N[C@@H](Cc1ccccc1)C(=O)N1CCC[C@H]1C(=O)NCC(=O)N[C@@H](C)C(=O)N[C@@H](CC(=O)O)C(=O)NCC(=O)N[C@H](C(=O)N[C@@H](C)C(=O)NCC(=O)N1CCC[C@H]1C(=O)N[C@@H](CCCCN)C(=O)O)C(C)C [compound 8] (H-GARGEPGPTGLPGPPGERGGPGSRGFPGADGVAGPK-OH; N-terminus and C-terminus assumed) | 2013.46 µg
2 | CSCC[C@H](NC(=O)[C@@H](NC(=O)CNC(=O)[C@H](C)NC(=O)[C@H](CCC(N)=O)NC(=O)CNC(=O)[C@H](CCCNC(=N)N)NC(=O)[C@H](C)NC(=O)CNC(=O)[C@@H]1CCCN1C(=O)[C@@H]1CCCN1C(=O)CNC(=O)[C@@H]1CCCN1C(=O)[C@@H]1CCCN1C(=O)CNC(=O)[C@@H]1CCCN1C(=O)[C@H](CCCNC(=N)N)NC(=O)CN)C(C)C)C(=O)NCC(=O)N[C@@H](Cc1ccccc1)C(=O)N1CCC[C@H]1C(=O)NCC(=O)N1CCC[C@H]1C(=O)N[C@@H](CCCCN)C(=O)NCC(=O)N[C@@H](C)C(=O)N[C@@H](C)C(=O)NCC(=O)N[C@@H](CCC(=O)O)C(=O)N1CCC[C@H]1C(=O)NCC(=O)N[C@@H](CCCCN)C(=O)N[C@@H](C)C(=O)NCC(=O)N[C@@H](CCC(=O)O)C(=O)N[C@@H](CCCNC(=N)N)C(=O)O [compound 10] (H-GRPGPPGPPGARGQAGVMGFPGPKGAAGEPGKAGER-OH; N-terminus and C-terminus assumed) | 2290.34 µg
3 | CSCC[C@H](NC(=O)[C@H](CCC(N)=O)NC(=O)CNC(=O)[C@@H]1CCCN1C(=O)[C@H](C)NC(=O)CNC(=O)[C@H](CC(N)=O)NC(=O)[C@H](CCC(=O)O)NC(=O)CNC(=O)[C@@H]1CCCN1C(=O)[C@H](CO)NC(=O)CNC(=O)[C@@H]1CCCN1C(=O)[C@H](CCC(=O)O)NC(=O)CNC(=O)[C@H](CCCCN)NC(=O)[C@@H]1CCCN1C(=O)CNC(=O)[C@H](C)NC(=O)[C@@H]1CCCN1C(=O)CNC(=O)[C@H](C)NC(=O)[C@H](CC(=O)O)NC(=O)CNC(=O)[C@H](CCCCN)NC(=O)[C@H](C)NC(=O)CN)C(=O)NCC(=O)N1CCC[C@H]1C(=O)N[C@@H](CCCNC(=N)N)C(=O)NCC(=O)N[C@@H](CC(C)C)C(=O)N1CCC[C@H]1C(=O)NCC(=O)N[C@@H](CCC(=O)O)C(=O)N[C@@H](CCCNC(=N)N)C(=O)O [compound 4] (H-GAKGDAGPAGPKGEPGSPGENGAPGQMGPRGLPGER-OH; N-terminus and C-terminus assumed) | 2034.78 µg
4 | CSCC[C@H](NC(=O)CNC(=O)[C@H](CCC(N)=O)NC(=O)[C@H](CC(C)C)NC(=O)CNC(=O)[C@@H]1CCCN1C(=O)[C@H](C)NC(=O)CNC(=O)[C@H](CCC(N)=O)NC(=O)[C@H](CO)NC(=O)CNC(=O)[C@@H]1CCCN1C(=O)[C@H](C)NC(=O)CNC(=O)[C@@H]1CCCN1C(=O)[C@H](C)NC(=O)CNC(=O)[C@H](C)NC(=O)[C@H](CC(=O)O)NC(=O)CNC(=O)[C@H](CCCCN)NC(=O)[C@H](C)NC(=O)CNC(=O)[C@H](CC(=O)O)NC(=O)[C@H](CC(N)=O)NC(=O)CNC(=O)[C@@H]1CCCN1C(=O)[C@H](C)NC(=O)CNC(=O)[C@H](CC(N)=O)NC(=O)[C@H](C)NC(=O)CN)C(=O)N1CCC[C@H]1C(=O)NCC(=O)N[C@@H](CCC(=O)O)C(=O)N[C@@H](CCCNC(=N)N)C(=O)O [compound 16] (H-GANGAPGNDGAKGDAGAPGAPGSQGAPGLQGMPGER-OH; N-terminus and C-terminus assumed) | 2034.34 µg
5 | CC(C)[C@H](NC(=O)CNC(=O)[C@H](CCCNC(=N)N)NC(=O)[C@H](CCC(=O)O)NC(=O)CN)C(=O)N[C@@H](CCC(N)=O)C(=O)NCC(=O)N1CCC[C@H]1C(=O)N1CCC[C@H]1C(=O)NCC(=O)N1CCC[C@H]1C(=O)N[C@@H](C)C(=O)NCC(=O)N1CCC[C@H]1C(=O)N[C@@H](CCCNC(=N)N)C(=O)NCC(=O)N[C@@H](C)C(=O)N[C@@H](CC(N)=O)C(=O)NCC(=O)N[C@@H](C)C(=O)N1CCC[C@H]1C(=O)NCC(=O)N[C@@H](CC(N)=O)C(=O)N[C@@H](CC(=O)O)C(=O)NCC(=O)N[C@@H](C)C(=O)N[C@@H](CCCCN)C(=O)NCC(=O)N[C@@H](CC(=O)O)C(=O)N[C@@H](C)C(=O)NCC(=O)N[C@@H](C)C(=O)N1CCC[C@H]1C(=O)NCC(=O)N[C@@H](C)C(=O)N1CCC[C@H]1C(=O)O [compound 27] (H-GERGVQGPPGPAGPRGANGAPGNDGAKGDAGAPGAP-OH; N-terminus and C-terminus assumed) | 2186.24 µg
6 | CC(C)C[C@H](NC(=O)[C@H](CC(=O)O)NC(=O)CNC(=O)[C@@H]1CCCN1C(=O)[C@@H](NC(=O)CNC(=O)[C@H](CCC(N)=O)NC(=O)[C@H](CCC(=O)O)NC(=O)CNC(=O)[C@@H]1CCCN1C(=O)[C@H](CCCCN)NC(=O)CNC(=O)[C@H](C)NC(=O)[C@H](CCC(=O)O)NC(=O)CNC(=O)[C@@H]1CCCN1C(=O)[C@@H]1CCCN1C(=O)CN)C(C)C)C(=O)NCC(=O)N[C@@H](C)C(=O)N1CCC[C@H]1C(=O)NCC(=O)N1CCC[C@H]1C(=O)N[C@@H](CO)C(=O)NCC(=O)N[C@@H](C)C(=O)N[C@@H](CCCNC(=N)N)C(=O)NCC(=O)N[C@@H](CCC(=O)O)C(=O)N[C@@H](CCCNC(=N)N)C(=O)NCC(=O)N[C@@H](Cc1ccccc1)C(=O)N1CCC[C@H]1C(=O)NCC(=O)N[C@@H](CCC(=O)O)C(=O)N[C@@H](CCCNC(=N)N)C(=O)O [compound 25] (H-GPPGEAGKPGEQGVPGDLGAPGPSGARGERGFPGER-OH; N-terminus and C-terminus assumed) | 2255.78 µg
7 | CSCC[C@H](NC(=O)[C@@H]1CCCN1C(=O)CNC(=O)[C@@H]1CCCN1C(=O)[C@@H]1CCCN1C(=O)CNC(=O)[C@H](CCCNC(=N)N)NC(=O)[C@H](CCC(=O)O)NC(=O)CN)C(=O)NCC(=O)N1CCC[C@H]1C(=O)N1CCC[C@H]1C(=O)NCC(=O)N[C@@H](CC(C)C)C(=O)N[C@@H](C)C(=O)NCC(=O)N1CCC[C@H]1C(=O)N1CCC[C@H]1C(=O)NCC(=O)N[C@@H](CCC(=O)O)C(=O)N[C@@H](CO)C(=O)NCC(=O)N[C@@H](CCCNC(=N)N)C(=O)N[C@@H](CCC(=O)O)C(=O)NCC(=O)N[C@@H](C)C(=O)N1CCC[C@H]1C(=O)NCC(=O)N[C@@H](C)C(=O)N[C@@H](CCC(=O)O)C(=O)NCC(=O)N[C@@H](CO)C(=O)N1CCC[C@H]1C(=O)NCC(=O)N[C@@H](CCCNC(=N)N)C(=O)N[C@@H](CC(=O)O)C(=O)O [compound 24] (H-GERGPPGPMGPPGLAGPPGESGREGAPGAEGSPGRD-OH; N-terminus and C-terminus assumed) | 2234.67 µg
8 | CSCC[C@H](NC(=O)CNC(=O)[C@H](CCC(N)=O)NC(=O)[C@H](CC(C)C)NC(=O)CNC(=O)[C@@H]1CCCN1C(=O)[C@H](C)NC(=O)CNC(=O)[C@H](CCC(N)=O)NC(=O)[C@H](CO)NC(=O)CNC(=O)[C@@H]1CCCN1C(=O)[C@H](C)NC(=O)CNC(=O)[C@@H]1CCCN1C(=O)[C@H](C)NC(=O)CN)C(=O)N1CCC[C@H]1C(=O)NCC(=O)N[C@@H](CCC(=O)O)C(=O)N[C@@H](CCCNC(=N)N)C(=O)NCC(=O)N[C@@H](C)C(=O)N[C@@H](C)C(=O)NCC(=O)N[C@@H](CC(C)C)C(=O)N1CCC[C@H]1C(=O)NCC(=O)N1CCC[C@H]1C(=O)N[C@@H](CCCCN)C(=O)NCC(=O)N[C@@H](CC(=O)O)C(=O)N[C@@H](CCCNC(=N)N)C(=O)NCC(=O)N[C@@H](CC(=O)O)C(=O)N[C@@H](C)C(=O)O [compound 17] (H-GAPGAPGSQGAPGLQGMPGERGAAGLPGPKGDRGDA-OH; N-terminus and C-terminus assumed) | 2998.75 µg
9 | CSCC[C@H](NC(=O)CNC(=O)[C@@H]1CCCN1C(=O)[C@H](CC(C)C)NC(=O)CNC(=O)[C@H](C)NC(=O)[C@@H](NC(=O)CNC(=O)[C@@H]1CCCN1C(=O)[C@H](CC(C)C)NC(=O)CNC(=O)[C@H](CCCNC(=N)N)NC(=O)[C@H](C)NC(=O)CNC(=O)[C@H](CCC(N)=O)NC(=O)[C@@H]1CCCN1C(=O)CNC(=O)[C@@H]1CCCN1C(=O)[C@@H]1CCCN1C(=O)CNC(=O)[C@H](CCCNC(=N)N)NC(=O)[C@H](CCC(=O)O)NC(=O)CN)[C@@H](C)O)C(=O)N[C@@H](CCCCN)C(=O)NCC(=O)N[C@@H](Cc1c[nH]cn1)C(=O)N[C@@H](CCCNC(=N)N)C(=O)NCC(=O)N[C@@H](Cc1ccccc1)C(=O)N[C@@H](CO)C(=O)NCC(=O)N[C@@H](CC(C)C)C(=O)N[C@@H](CC(=O)O)C(=O)NCC(=O)N[C@@H](C)C(=O)N[C@@H](CCCCN)C(=O)O [compound 3] (H-GERGPPGPQGARGLPGTAGLPGMKGHRGFSGLDGAK-OH; N-terminus and C-terminus assumed) | 2224.03 µg

Source: patent US20250152675A1, “I-TYPE RECOMBINANT COLLAGEN WITH HIGH TRANSDERMAL ABSORBABILITY, AND USE THEREOF” (XI'AN GIANT BIOGENE TECHNOLOLGY CO., LTD, priority 2022, published 2025)
